Measurements published in patent US20080022467A1, “Disazo dyes and their preparation and use” (ILFORD Imaging Switzerland GmbH, priority 2006, published 2008).

Legend:
[1] = Stability against degradation by ozone of printed patches; format: physicochemical; design: key: A: excellent; B: good; C: satisfactory; D: unsatisfactory; details: ozone 1 ppm, 30° C., 50% relative humidity; for Resistance against Degradation by Ozone (Class) on Recording Sheet C: C: ILFORD Galerie Smooth Glossy (nanoporous); for Resistance against Degradation by Ozone (Class) on Recording Sheet D: D: ILFORD Printasia Premium Photo Glossy Paper (nanoporous); for Resistance against Degradation by Ozone (Class) on Recording Sheet F: F: EPSON Premium Glossy Photo Paper (nanoporous); for Resistance against Degradation by Ozone (Class) on Recording Sheet G: G: CANON Photo Paper Pro PR-101 (nanoporous)
Experimental: (§1) The present invention, as far as it relates to recording liquids, is illustrated by the following examples using the disazo dyes of Table 1 according to the invention and dyes representing the state of the art. For each dye, 100 g of recording liquid were prepared by heating the necessary amount of dye (2.0 g-5.0 g), 6.0 g of ethylene glycol, 3.0 g of propylene-1,2-glycol, 3.0 g of 1-methyl-2-pyrrolidone, 0.3 g of an aqueous solution (50%) of Olin® 10G (available from Arch Chemicals Inc., Norwalk, USA), 0.3 g of Surfinol® 465 (available from Air Products and Chemicals Inc., Allentown, USA) and 0.1 g of Mergal® K 10N (available from Riedel-de-Haën, Seelze, Germany) together with water at a temperature of 50° C. under stirring for approximately 1 hour. The resulting solution was cooled down to a temperature of 20° C., its value of pH was adjusted to 7.5 and the solution was passed through a Millipore® filter of 0.3 μm pore diameter. The dye quantity was adjusted in such a way that the optical density of the printed image was similar for all dyes.
(§2) Homogeneously colored square patches with an approximate density of 1.40 were then printed, using these recording liquids, with an ink jet printer Canon BJC 8500 onto the following recording sheets: • A: HP Printing Paper HPP 1122 (paper) • B: HP Premium Plus (polymer based recording sheet) • C: ILFORD Galerie Smooth Glossy (nanoporous recording sheet) • D: ILFORD Printasia Premium Photo Glossy Paper (nanoporous recording sheet) • E: ILFORD Galerie Classic Gloss Paper (polymer based recording sheet) • F: EPSON Premium Glossy Photo Paper (nanoporous recording sheet) • G: CANON Photo Paper Pro PR-101 (nanoporous recording sheet)
The optical density of the colored square patches was measured with a Spectrolino® densitometer. Afterwards, the printed samples were stored for a predetermined time (for example 48 hours) in an ozone chamber, model 903 (available from Satra/Hampden, Great Britain) at a temperature of 30° C., a relative humidity of the air of 50% and an ozone concentration of 1 ppm at a velocity of the circulating, ozone containing air of 13 mm/s. After storage, the samples were re-measured. The density differences of these two measurements, expressed as per cent of the initial density, are an indication of the amount of dye loss due to the exposure to ozone.

[2] = Light stability of printed patches (Weather-Ometer, xenon lamp); format: physicochemical; design: key to Light Stability (Class) on Recording Sheet A / Light Stability (Class) on Recording Sheet B / Light Stability (Class) on Recording Sheet C / Light Stability (Class) on Recording Sheet D / Light Stability (Class) on Recording Sheet E / Light Stability (Class) on Recording Sheet F / Light Stability (Class) on Recording Sheet G: A: excellent; B: good; C: satisfactory; D: unsatisfactory; details: for Light Stability (Class) on Recording Sheet A: A: HP Printing Paper HPP 1122 (paper), 20° C., 50% relative humidity; for Light Stability (Class) on Recording Sheet A / Light Stability (Class) on Recording Sheet B / Light Stability (Class) on Recording Sheet C / Light Stability (Class) on Recording Sheet D / Light Stability (Class) on Recording Sheet E / Light Stability (Class) on Recording Sheet F / Light Stability (Class) on Recording Sheet G: 20 megalux hours; for Light Stability (Class) on Recording Sheet B: B: HP Premium Plus (polymer based); for Light Stability (Class) on Recording Sheet C: C: ILFORD Galerie Smooth Glossy (nanoporous); for Light Stability (Class) on Recording Sheet D: D: ILFORD Printasia Premium Photo Glossy Paper (nanoporous); for Light Stability (Class) on Recording Sheet E: E: ILFORD Galerie Classic Gloss Paper (polymer based); for Light Stability (Class) on Recording Sheet F: F: EPSON Premium Glossy Photo Paper (nanoporous); for Light Stability (Class) on Recording Sheet G: G: CANON Photo Paper Pro PR-101 (nanoporous); for light stability on all recording sheets (in words): summary of Table 4
Experimental: as §1, §2
The printed samples were irradiated using a Weather-Ometer® Ci35A (available from Atlas Material Testing Technology, Chicago, USA) with a 6500 W xenon lamp at a temperature of 20° C. and relative humidity of 50% until an illumination of 20 megalux hours was reached. The density loss was measured with a densitometer Spectrolino®. The percent density loss of initial density gives an indication of the light stability of the dyes on the printed recording sheet.

Row | Molecule | Resistance against Degradation by Ozone (Class) on Recording Sheet C [1] | Resistance against Degradation by Ozone (Class) on Recording Sheet D [1] | Resistance against Degradation by Ozone (Class) on Recording Sheet F [1] | Resistance against Degradation by Ozone (Class) on Recording Sheet G [1] | Light Stability (Class) on Recording Sheet A [2] | Light Stability (Class) on Recording Sheet B [2] | Light Stability (Class) on Recording Sheet C [2] | Light Stability (Class) on Recording Sheet D [2] | Light Stability (Class) on Recording Sheet E [2] | Light Stability (Class) on Recording Sheet F [2] | Light Stability (Class) on Recording Sheet G [2] | light stability on all recording sheets (in words) [2]
1 | O=S(=O)([O-])CCNc1nc(Nc2ccc(N=Nc3ccc4cc(S(=O)(=O)[O-])cc(S(=O)(=O)[O-])c4c3)cc2)nc(Nc2ccc(N=Nc3ccc4cc(S(=O)(=O)[O-])cc(S(=O)(=O)[O-])c4c3)cc2)n1.[Na+].[Na+].[Na+].[Na+].[Na+] [Dye No. 16] | A | A | A | A | B | A | B | B | B | B | B | –
2 | O=S(=O)([O-])CCNc1nc(Nc2ccc(N=Nc3cc(S(=O)(=O)[O-])c4cccc(S(=O)(=O)[O-])c4c3)cc2)nc(Nc2ccc(N=Nc3cc(S(=O)(=O)[O-])c4cccc(S(=O)(=O)[O-])c4c3)cc2)n1.[Na+].[Na+].[Na+].[Na+].[Na+] [Dye No. 11] | A | A | A | A | B | A | A | B | B | A | A | –
3 | O=S(=O)([O-])CCCSc1nc(Nc2ccc(N=Nc3ccc4cc(S(=O)(=O)[O-])cc(S(=O)(=O)[O-])c4c3)cc2)nc(Nc2ccc(N=Nc3ccc4cc(S(=O)(=O)[O-])cc(S(=O)(=O)[O-])c4c3)cc2)n1.[Na+].[Na+].[Na+].[Na+].[Na+] [Dye No. 15] | B | A | A | A | B | A | B | B | B | B | B | –
4 | CN(CCS(=O)(=O)[O-])c1nc(Nc2ccc(N=Nc3cc(S(=O)(=O)[O-])c4cccc(S(=O)(=O)[O-])c4c3)cc2)nc(Nc2ccc(N=Nc3cc(S(=O)(=O)[O-])c4cccc(S(=O)(=O)[O-])c4c3)cc2)n1.[Na+].[Na+].[Na+].[Na+].[Na+] [Dye No. 14] | A | A | A | A | B | A | A | B | B | B | B | –

Second part, led by results:

Row | Resistance against Degradation by Ozone (Class) on Recording Sheet C [1] | Resistance against Degradation by Ozone (Class) on Recording Sheet D [1] | Resistance against Degradation by Ozone (Class) on Recording Sheet F [1] | Resistance against Degradation by Ozone (Class) on Recording Sheet G [1] | Light Stability (Class) on Recording Sheet A [2] | Light Stability (Class) on Recording Sheet B [2] | Light Stability (Class) on Recording Sheet C [2] | Light Stability (Class) on Recording Sheet D [2] | Light Stability (Class) on Recording Sheet E [2] | Light Stability (Class) on Recording Sheet F [2] | Light Stability (Class) on Recording Sheet G [2] | Molecule | light stability on all recording sheets (in words) [2]
5 | A | A | A | A | B | A | B | B | B | B | B | O=C([O-])c1cc(Nc2nc(Nc3ccc(N=Nc4cc(S(=O)(=O)[O-])c5cccc(S(=O)(=O)[O-])c5c4)cc3)nc(Nc3ccc(N=Nc4cc(S(=O)(=O)[O-])c5cccc(S(=O)(=O)[O-])c5c4)cc3)n2)cc(C(=O)[O-])c1.[Na+].[Na+].[Na+].[Na+].[Na+].[Na+] [Dye No. 18] | –
6 | A | B | A | A | A | A | B | B | B | A | B | O=S(=O)([O-])c1cc(/N=N/c2ccc(Nc3nc(NCCO)nc(Nc4ccc(/N=N/c5cc(S(=O)(=O)[O-])c6cccc(S(=O)(=O)[O-])c6c5)cc4)n3)cc2)cc2c(S(=O)(=O)[O-])cccc12.[Na+].[Na+].[Na+].[Na+] [Dye No. I, reference compound] | excellent or good light stability
7 | D | B | C | C | C | A | B | B | B | B | B | Direct Yellow 132 [Dye No. III, reference compound] | satisfactory or even unsatisfactory light stability
